From patent publication US8557804B2, “Nicotinic receptor agonists for the treatment of inflammatory diseases” (priority 2002, dated 2013)
“And” between values parts separate entries of the source, which are not always exact repeats. Equal values may be shown once. “Also recorded” adds a separate entry of the source. Where a name gives a salt, the structure may show the parent alone. Read-outs that look alike come from different tables or passages of the source.

Key:
[1] = tested on: lung resistance in hyperresponsive dogs; assay: Dog model of lung hyper-responsiveness to metacholine; type: in vivo; settings: 12 hyperresponsive dogs
Experimental: In this model 12 dogs naturally sensitized to the roundworm Ascaris suum were used in a cross-over study design. Four groups of 3 dogs were randomly formed, exposed to the allergen, and each animal was left either untreated or received alternatively, ASM-002 (4 mg/kg 2× day in the food), or prednisone (1 mg/kg 1× day in the food), the most commonly used corticosteroid drug used to treat inflammation in asthma.
Hyper-responsiveness is described as the capacity of the lung to react (to increase lung resistance) to a non-specific external stimuli like metacholine or to allergens A hyper-responsive allergen-sensitized dog (asthmatic) will react to lower concentrations of metacholine compared to a non allergic dog. Similarly, improvement in lung hyper-responsiveness is shown by an increase in metacholine concentrations necessary to induce the same level of lung resistance.
Increasing concentrations of metacholine were administered with or without treatment with ASM-002 or Prednisone™ and lung resistance recorded.

[2] = tested on: blood eosinophils; assay: Blood eosinophil transmigration through an artificial basement membrane (Matrigel coated chemotaxis chamber); type: cell-based
Description: Infiltration of eosinophils and other inflammatory cells into lung tissues is an important feature of asthma and the cause of airway inflammation and hyper-responsiveness. The passage of inflammatory cells from the circulation to the lung involves migration through the vascular endothelium, the basement membrane, and extra-cellular matrix components. Inflammatory cells cross the basement membrane by producing proteinases. In these preliminary in vitro experiments, the effects of various nicotinic agonists on the migration of purified blood eosinophils through an artificial basement membrane (Matrigel® coated chemotaxis chamber) were investigated. […] Results are expressed as a percentage of inhibition (agonists-treated cells) compared to the control condition without the agonists.

[3] = tested on: LTC4 release by blood eosinophils; assay: LTC4 production by PAF-stimulated blood eosinophils (enzyme immunoassay); type: cell-based, human; settings: eosinophils pre-incubated 18 hours with analog, PAF stimulated; untreated 1725.80
Experimental: Blood eosinophils, the most increased inflammatory cells in asthma, were isolated by negative selection using bead-conjugated anti-CD16 monoclonal antibody and magnetic activating cell sorting. Cells were pre-Incubated for 18 hours with the various DMPP analogs and then stimulated with 1 µM platelet-activating factor (PAF) to produce LTC4 which was measured by enzyme immunoassay.
Human blood eosinophils were isolated from blood of asthmatic patients, stimulated in vitro with platelet activating factor (PAF) to produce large amounts of LTC4, and treated or not with 80 μM ASM-002.

[4] = tested on: collagen 1A mRNA expression by normal human lung fibroblasts; assay: Collagen A1 gene expression by RT-PCR in primary normal lung fibroblasts; type: cell-based
Experimental: Asthma is characterized by airway structural changes, including sub-epithelial collagen deposition, that may be a cause for the chronicity of the disease. An imbalance between collagen synthesis and its degradation by fibroblasts may be involved in this process (56). In preliminary experiments, we investigated the effects of nicotinic agonists on collagen A1 synthesis produced by primary normal fibroblasts. Collagen A1 gene expression was evaluated by RT-PCR.
The results are expressed percentage gene expression in agonists treated cells compared to non-treated cells.

[5] = tested on: SR-induced inflammation in mice; assay: Short term SR-induced acute lung inflammation in mice, BAL cells; type: in vivo
Description: The Intranasal instillation of Saccharopolyspora rectivirgula (SR) antigens, the causative agent for farmer's lung, to mice, induces a prominent inflammatory response in the lung. Neutrophils are the first inflammatory cells recruited at the site of inflammation.

[6] = reference (40); cited from earlier work
[7] = tested on: CD86 expression on alveolar macrophages; assay: CD86 expression in SR-stimulated BAL cells of a normal patient; type: cell-based, human; settings: SR-stimulated alveolar macrophages
Experimental: A broncho-alveolar lavage was performed on a normal patient, and alveolar macrophages were isolated.

[8] = tested on: IL-10 mRNA expression in AMJ2-C11 cells; assay: IL-10 mRNA expression by RT-PCR in AMJ2-C11 cells; type: cell-based, mouse
Experimental: (§1) The effect of nicotine or DMPP treatment on AMJ2-C11 cells was tested on TNF-α, IL-10 mRNA expression by RT-PCR. These cytokines are involved in the development of pulmonary inflammatory diseases such as HP, asthma and sarcoidosis (52-55). […] Reference is made to FIG. 3 where results are expressed as a % of expression, 100% being attributed to the LPS alone group. The intensity of the band was obtained by dividing the intensity of the TNF-α band by that of β-actin. […] Reference is made to FIG. 4 where results are expressed as described in FIG. 5.

[9] = tested on: IL-4 mRNA expression; assay: IL-4 mRNA expression induced by a 24 h LPS stimulation; type: cell-based; settings: LPS stimulation 24 h, 40 μM
Experimental: The effect of agonist treatment on mRNA expression of IL-4, a cytokine that is well known to be involved in the development of asthma, was also tested (53). […] Cells were treated with different doses (40 to 160 μM for both nicotine and DMPP).

[10] = tested on: Saccharopolyspora rectivirgula (SR) antigen-induced HP in mice; settings: IP nicotine 0.5 to 2.0 mg/kg twice a day
[11] = tested on: CD80 expression on AMJ2-C11 cells; assay: B7 (CD80) molecule expression on AMJ2-C11 cells; type: cell-based, mouse; settings: LPS (0.1 μg/ml) stimulated, 40 μM for 48 h; LPS alone 38%
Experimental: The effects of nicotine and DMPP on B7 (CD80) molecule expression were tested in vitro. AMJ2-C11 cells (mouse alveolar macrophages, from the ATCC) were incubated with 40 μM nicotine or DMPP and stimulated with LPS (0.1 μg/ml) or SR antigen (50 μg/ml) for 48 hours.

[12] = tested on: IFN-γ mRNA; settings: pulmonary macrophages and lymphocytes from nicotine treated animals, anti-CD3 + IL-2
[13] = tested on: TNF-α mRNA expression in AMJ2-C11 cells; assay: TNF-α mRNA expression by RT-PCR in AMJ2-C11 cells; type: cell-based, mouse
Experimental: as §1

[14] = tested on: TNF release by human blood monocytes; assay: cells; type: cell-based; settings: monocytes of asthmatic patients, LPS 100 ng/ml 18 h; n=8 to 10
Experimental: Human monocytes were isolated from the blood of asthmatic patients by Ficoll-paque density gradient, let to adhere to tissue culture plates and stimulated with LPS (100 ng/ml) for 18 hours at 37° C. with or without increasing concentrations of nicotine. The release of TNF, a potent pro-inflammatory mediator, was measured in the cell culture supernatant by the ELISA method. Results are expressed as a percentage release from LPS-stimulated untreated cells (FIG. 28).
Tumor necrosis factor (TNF) is a mediator released in inflammatory states.
Human blood monocytes were isolated by Ficoll-paque density gradient, let to adhere to tissue culture plates and stimulated with LPS (100 ng/ml) for 18 hours at 37° C. with or without increasing concentrations of nicotine analogues.

[15] = purified blood eosinophils, Matrigel

For `C[C@]12C=CC(=O)C=C1CC[C@@H]1[C@@H]2C(=O)C[C@@]2(C)[C@H]1CC[C@]2(O)C(=O)CO` [prednisone], the “dogs with decreased lung resistance / improved hyper-responsiveness” value [1] was “None of the 12 dogs”.
Work on `C[N+]1(C)CCCN(c2ccccc2)CC1` (as salt: iodide) [ASM-002, 1,1-dimethyl-4-phenylhomopiperazinium iodide] yielded a melting point of 158 to 160 °C.
In the case of `CNC1(C)C2CCC(C2)C1(C)C` (stereo not shown) [mecamylamine], the “effect of the antagonist on the DMPP inhibition of eosinophil transmigration” value ([2]; together with DMPP) is reported as “reverses the effect of DMPP”.
With `O=c1cccc2n1C[C@@H]1CNC[C@H]2C1` [cytisine] the “inhibition of eosinophil transmigration” value [2] was “reduce blood eosinophil transmigration”.
Work on `CC[N+]1(C)CCN(c2ccccc2)CC1` [ASM-003] yielded an LTC4 [3] of 613.90 pg/mL.
With `Clc1ccc(C2CC3CCC2N3)cn1` (stereo not shown) [epibatidine, Epibatidine] the “collagen A1 gene expression” value ([4]; primary normal fibroblasts, RT-PCR) was “inhibitory effect is also observed”, the “effect on SR-induced inflammation (BAL cells)” value ([5]; mouse, in vivo) was “marked inhibitory effect; also recorded: significant inhibitory effect” and the “inhibition of eosinophil transmigration” value [2, 15] was “reduce blood eosinophil transmigration”. For the same compound, the “analgesic potential, times that of morphine” value [6] was “two hundred”.
In the case of `CN1CCCC1c1cccnc1` (stereo not shown) [nicotine, Nicotine], the “expression of CD86 relative to non-treated cells” value [7] is reported as “about half of the expression”, the “reduction of IL-10 mRNA expression” value ([8]; LPS stimulated 24 h, 40 μM) is reported as 88% and 87% and the “drop of IL-10 mRNA expression” value ([8]; SR-stimulated 24 h, 160 μM) is reported as 60%. The “reduction of IL-4 mRNA expression” value [9] was ≤ 90%, the “reduction of IL-4 mRNA expression” value ([9]; listed as Nicotine) was “up to 92%” and the “collagen A1 gene expression” value ([4]; 1 and 10 μM) was “slight inhibitory effect”. For the same compound, the “collagen A1 gene expression” value ([4]; higher concentrations (above 10 μM)) was “no effects”, the “effect on SR-induced inflammation (BAL cells)” value ([5]; intra-nasal every 6 h, 24 h after SR, DMPP 0.5 mg/kg, nicotine 0.5 mg/kg, epibatidine 2 μg/kg) was “marked inhibitory effect; also recorded: significant inhibitory effect” and the “lymphocyte population in BAL” value [10] was “decrease in the lymphocyte population”. For the same compound, the “number of total cells in bronchoalveolar lavage (BAL)” value [10] was “significantly reduced”, the “percentage of expression of CD80” value [11] was 20% and the “inhibition of eosinophil transmigration” value [2, 15] was “reduce blood eosinophil transmigration”. The “expression of IFN-γ mRNA vs cells from non-treated animals” value [12] was “significantly lower expression”, the “reduction of TNF-α mRNA expression” value ([13]; LPS stimulated 24 h, 40 μM) was 98% and the “effect on TNF-α mRNA expression” value ([13]; SR-stimulated 24 h, only the 160 μM dose (80 and 160 μM tested)) was “had an effect on mRNA expression”.
For `CC[N+]1(CC)CCN(c2ccccc2)CC1` [ASM-005], the “effect on TNF release” value [14] was “Except for ASM-005, all analogs tested had an inhibitory effect”.
